The values below come from patent US6548638B2, “Peptoid and nonpeptoid containing α-keto oxadiazoles as serine protease inhibitors” (Cortech, Inc., priority 1998, dated 2003).

In experiment [1] the target is T1, HNE (elastase derived from human sputum, HSE) (Homo sapiens, UniProt P08246).
T1 construct: The elastase used in the protocol was derived from human sputum (HSE); purchased Elastin Product Co., Inc, Missouri, USA SE-563; host or cells: human sputum (natural source)
T1 sequence (P08246 30-267): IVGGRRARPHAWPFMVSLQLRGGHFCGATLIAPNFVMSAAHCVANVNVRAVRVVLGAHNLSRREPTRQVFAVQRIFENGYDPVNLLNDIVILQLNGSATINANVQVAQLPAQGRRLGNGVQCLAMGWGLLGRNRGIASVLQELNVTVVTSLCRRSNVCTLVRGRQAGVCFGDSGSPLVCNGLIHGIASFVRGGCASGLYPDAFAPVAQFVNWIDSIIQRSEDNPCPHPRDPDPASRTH
Nature of the experiment: In vitro inhibition of elastase (rate assay, N-methoxysuccinyl-Ala-Ala-Pro-Val-p-nitroaniline substrate). The format is biochemical. The following applies: inhibition activity against HNE; IC50 by log-logit method converted to K1 by Dixson plot; pH 8.0, 37° C.

Experiment [2] concerns elastase activity in whole blood. The experiment is described as follows: Ex vivo inhibition of elastase (whole blood stimulated with opsonized zymosan, after oral administration). The format is in vivo. The conditions noted are these: blood sampled 60 minutes after administration, 24 hour fasted animal; for Percent Inhibition at Indicated Dosage, 3 mg/kg: 3 mg/kg oral; for Percent Inhibition at Indicated Dosage, 10 mg/kg: 10 mg/kg oral; for Percent Inhibition at Indicated Dosage, 30 mg/kg: 30 mg/kg oral. The procedure: Sixty (60) minutes after the oral administration of an inhibitor with an appropriate vehicle, a blood sample (0.9 ml) is collected through the abdominal aorta by a syringe containing 0.1 ml of a 3.8% sodium citrate solution.
The blood sample is processed as follows: 60 μl of (final 0.1-1 mg/ml) a suspended solution of opsonized zymosan in Hank's buffer is added to the preincubated whole blood (540 μl) for 5 minutes at 37° C., and the resulting mixture is incubated for 30 minutes at the same temperature. The reaction is terminated by immersing the test tube into ice water. The reaction mixture is then centrifuged at 3,000 rpm for 10 minutes at 4° C. Twenty (20) μl of each of the resulting supernatant (the Sample) is measured for elastase activity.
The mixture consisting of the following components is incubated for 24 hours at 37° C., and then optical density is measured at 405 nm:
A test sample mixed with 1-methyl-2-pyrrolidone instead of the substrate is regarded as Substrate (−). A test sample mixed with saline instead of the Sample is regarded as Blank. The remaining elastase activity in the Sample is calculated according to the following: […]
optical density of Substrate (+)−(optical density of Substrate (−)+optical density of Blank)
as a total production of p-nitroaniline over 24 hours based on a standard curve for the amount of p-nitroaniline.
An average activity is calculated based on the test sample of 5-6 animals. An agent at 3, 10 or 30 mg/kg is orally given by a forced administration to a 24 hour fasted animal at 60 minutes before the blood sampling. Optical density is measured by SPECTRA MAX 250 (Molecular Devices).

`CC(C)C(NC(=O)Cn1c(-c2ccccc2)ncc(N)c1=O)C(=O)c1nnc(C(C)(C)c2ccc3c(c2)OCO3)o1` (racemic) [Example 8, 2-[5-Amino-6-oxo-2-phenyl-1,6-dihydro-1-pyrimidinyl]-N-[1-(2-[5-(α,α-dimethyl-3,4methylenedioxybenzyl)-1,3,4-oxadiazolyl]carbonyl)-2-(R,S)-methylpropyl]acetamide] registered a Ki in experiment [1] of 1.06 nM.
The compound `CC(C)C(NC(=O)Cn1c(-c2ccccc2)nccc1=O)C(=O)c1nnc(C(C)(C)c2ccc3c(c2)OCO3)o1` (racemic) [Example 9, 2-[6-Oxo-2-phenyl-1,6-dihydro-1-pyrimidinyl]-N-[1-(2-[5-(α,α-dimethyl-3,4-methylenedioxybenzyl)-1,3,4-oxadiazolyl]carbonyl)-2-(R,S)-methylpropyl]acetamide] came in with a Ki in experiment [1] of 0.34 nM.
As to `CC(C)C(NC(=O)Cn1c(-c2ccc(F)cc2)nccc1=O)C(=O)c1nnc(C(C)(C)c2ccc3c(c2)OCO3)o1` (racemic) [Example 10, 2-[6-Oxo-2-(4-fluorophenyl)-1,6-dihydro-1-pyrimidinyl]-N-[1-(2-[5-(α,α-dimethyl-3,4-methylenedioxybenzyl)-1,3,4-oxadiazolyl]carbonyl)-2-(R,S)-methylpropyl]acetamide], in experiment [1], affinity was put at a Ki of 1.53 nM.
The compound `CC(C)C(NC(=O)Cn1c(-c2ccc(F)cc2)nccc1=O)C(=O)c1nnc(C(C)(C)c2ccccc2)o1` (racemic) [Example 11, 2-[6-Oxo-2-(4-fluorophenyl)-1,6-dihydro-1-pyrimidinyl]-N-[1-(2-[5-(α,α-dimethylbenzyl)-1,3,4-oxadiazolyl]carbonyl)-2-(R,S)-methylpropyl]acetamide] yielded a Ki in experiment [1] of 5.34 nM.
For the compound `CC(C)C(NC(=O)Cn1c(-c2ccccc2)nccc1=O)C(=O)c1nnc(C(C)(C)c2ccccc2)o1` (racemic) [Example 12, 2-[6-Oxo-2-phenyl-1,6-dihydro-1-pyrimidinyl]-N-[1-(2-[5-(α,α-dimethylbenzyl)-1,3,4-oxadiazolyl]carbonyl)-2-(R,S)-methylpropyl]acetamide], affinity in experiment [1] was put at a Ki of 1.83 nM.
As to `COC(=O)NC(C(=O)N1CCCC1C(=O)NC(C(=O)c1nnc(C(C)(C)C)o1)C(C)C)C(C)C` [Example 1, Methyloxycarbonyl-L-valyl-N-[1-(2-[5-(tert-butyl)oxadiazolyl]carbonyl)-2-(S)-methylpropyl]-L-prolinamide], affinity in experiment [1] was put at a Ki of 3 nM.
In experiment [1], `COC(=O)NC(C(=O)N1CCCC1C(=O)NC(C(=O)c1nnc(C(C)(C)c2ccccc2)o1)C(C)C)C(C)C` [Example 2, Methyloxycarbonyl-L-valyl-N-[1-(2-[5-(α,α-dimethylbenzyl)oxadiazolyl]carbonyl)-2-(S)-methylpropyl]-L-prolinamide] returned a Ki of 1.32 nM. Besides, in experiment [2], the “Percent Inhibition at Indicated Dosage, 3 mg/kg” value is reported as 7%; the “Percent Inhibition at Indicated Dosage, 10 mg/kg” value stood at 9%; the “Percent Inhibition at Indicated Dosage, 30 mg/kg” value was determined as 62%.
In turn, `COC(=O)NC(C(=O)N1CCCC1C(=O)NC(C(=O)c1nnc(C(C)(C)c2ccc3c(c2)OCO3)o1)C(C)C)C(C)C` [Example 3, Methyloxycarbonyl-L-valyl-N-[1-(2-[5-(α,α-dimethyl-3,4-methylenedioxybenzyl)-1,3,4-oxadiazolyl]carbonyl)-2-(S)-methylpropyl]-L-prolinamide] yielded a Ki in experiment [1] of 0.24 nM. In addition, in experiment [2], the “Percent Inhibition at Indicated Dosage, 3 mg/kg” value was 44%; the “Percent Inhibition at Indicated Dosage, 10 mg/kg” value was 69%; the “Percent Inhibition at Indicated Dosage, 30 mg/kg” value is listed as 99%.

As usually defined, the Ki is the equilibrium dissociation constant of an inhibitor or competing ligand from its target. A low value points to tighter binding.
